Test results reported in US6911319B2, “Methods and kits for detecting protein kinases” (Lumitech (UK) Limited, priority 2000, dated 2005).

Experiments:
Type in all cases: biochemical
raf-1 = experiment: Bioluminescent protein kinase assay, raf-1 activation of inactive MEK-1; conditions: two different concentrations of PD098059; inactive MEK-1 as substrate
MAPK-1/ERK-1 = target: T1, MAPK-1/ERK-1 (Homo sapiens, UniProt P27361); experiment: Bioluminescent protein kinase assay, MAPK-1 with MBP as substrate; conditions: 30° C. for 30 minutes, MBP 2.72 μM
T1 construct: purchased UBI (Upstate Biotechnology)
T1 sequence (P27361 whole entry): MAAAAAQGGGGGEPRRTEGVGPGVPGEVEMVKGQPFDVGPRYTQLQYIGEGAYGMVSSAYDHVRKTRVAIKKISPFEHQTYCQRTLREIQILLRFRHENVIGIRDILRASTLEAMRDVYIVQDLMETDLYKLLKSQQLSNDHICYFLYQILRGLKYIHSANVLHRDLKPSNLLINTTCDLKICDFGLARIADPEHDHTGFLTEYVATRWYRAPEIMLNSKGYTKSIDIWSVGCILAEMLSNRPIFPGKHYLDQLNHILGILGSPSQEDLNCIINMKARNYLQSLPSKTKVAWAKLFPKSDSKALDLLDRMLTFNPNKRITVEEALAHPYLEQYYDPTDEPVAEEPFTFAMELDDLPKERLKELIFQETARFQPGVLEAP
Experimental: We also investigated the effect of genistein (Calbiochem) on MAPK-1 activity with MBP as substrate.
The assay buffer used was the same as for the SAP kinases (see above). The assay was performed in 100 μl volumes in a 96 well microtitre plate at 30° C. for 30 minutes. MBP (Calbiochem) was used at the same concentration as previously described (2.72 μM), with the activated MAPK1/ERK1 (UBI) used at a final concentration of 2.5U per100 μl reaction volume. The inhibitor was added at concentrations of 0, 0.1, 0.25, 0.5 and 1.0 μM, with 10 μl being added per well in 0.1% (v/v) DMSO.
For completeness, control samples with and without DMSO (0+DMSO and 0−DMSO, respectively) were also analysed to confirm that there was no effect of DMSO on the performance of the assay.

[1] = target: luciferase-luciferin reaction (Photinus pyralis, UniProt P08659); experiment: Effect of inhibitor on the bioluminescent ATP detection system; conditions: even at the highest concentration of the inhibitor; 10 μM ATP, 100 μl volumes, 96 well plate
luciferase-luciferin reaction, sequence (P08659 whole entry): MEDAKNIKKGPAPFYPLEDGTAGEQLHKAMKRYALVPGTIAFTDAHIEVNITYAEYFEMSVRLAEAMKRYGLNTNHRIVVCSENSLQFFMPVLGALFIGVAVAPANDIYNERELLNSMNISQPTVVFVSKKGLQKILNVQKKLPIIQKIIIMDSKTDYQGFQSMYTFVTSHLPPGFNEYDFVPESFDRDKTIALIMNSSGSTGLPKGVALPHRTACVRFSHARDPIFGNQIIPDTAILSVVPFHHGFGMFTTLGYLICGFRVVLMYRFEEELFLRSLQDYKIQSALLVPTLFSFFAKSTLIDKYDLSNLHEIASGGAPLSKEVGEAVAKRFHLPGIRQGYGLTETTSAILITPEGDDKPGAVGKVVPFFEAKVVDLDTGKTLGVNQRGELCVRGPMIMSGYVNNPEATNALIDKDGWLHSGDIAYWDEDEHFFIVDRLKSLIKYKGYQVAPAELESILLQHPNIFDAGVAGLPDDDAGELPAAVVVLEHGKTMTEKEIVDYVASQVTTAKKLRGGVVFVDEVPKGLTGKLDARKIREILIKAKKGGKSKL
Experimental: We initially chose to look at a broad spectrum kinase inhibitor staurosporine (Calbiochem). Firstly, we tested the inhibitor (in DMSO) on the ATP detection reagent to ensure that the inhibitor would not affect the luciferase-luciferin reaction.
The results are presented as the means of triplicate wells±SD.
The experiment was performed using 10 μM ATP in 100 μl volumes in a 96 well plate with the addition of 20 μl of ATP detection reagent.

JNK2α2 = target: T2, JNK2α2 (Homo sapiens, UniProt P45984); experiment: Bioluminescent protein kinase assay, JNK2α2 with ATF-2 as substrate
T2 construct: purchased Upstate Discovery
T2 sequence (P45984 whole entry): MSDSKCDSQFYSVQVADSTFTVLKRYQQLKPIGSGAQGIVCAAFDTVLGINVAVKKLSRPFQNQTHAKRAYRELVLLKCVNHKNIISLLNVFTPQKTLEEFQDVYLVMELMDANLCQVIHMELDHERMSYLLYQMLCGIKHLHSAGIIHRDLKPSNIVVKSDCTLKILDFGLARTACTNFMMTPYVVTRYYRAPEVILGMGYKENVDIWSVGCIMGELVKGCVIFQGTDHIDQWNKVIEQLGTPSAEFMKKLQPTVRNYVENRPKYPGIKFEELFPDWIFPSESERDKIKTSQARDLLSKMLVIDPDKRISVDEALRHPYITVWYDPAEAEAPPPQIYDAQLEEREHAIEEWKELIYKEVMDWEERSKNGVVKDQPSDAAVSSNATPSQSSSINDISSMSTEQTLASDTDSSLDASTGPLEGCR
Experimental: The lower concentration had little effect, however 5 μM caused approximately 50% inhibition after 30 minutes at 30° C.
The above assay was performed in 200 μl volumes in plastic tubes in, a 30° C. waterbath. At each time point 20 μl samples were removed from the tubes and added to wells of a 96 well plate, followed by the addition of 20 μl of ATP detection reagent. The final concentration of ATP used was 12.5 μM, with JNK2α2 at 1.25 μM and ATF-2 at 2.55 μM.

COc1cccc(-c2cc(=O)c3ccccc3o2)c1N [PD098059]
light output in the presence of the inhibitor (indicating reduced kinase activity) (raf-1): concentration dependent increase

O=c1c(-c2ccc(O)cc2)coc2cc(O)cc(O)c12 [genistein]
effect on MAPK-1 activity (MAPK-1/ERK-1; genistein 500 nM): an effect | effect on MAPK-1 activity (MAPK-1/ERK-1; genistein 1 μM): increased inhibitory activity

CN[C@@H]1C[C@H]2O[C@@](C)([C@@H]1OC)n1c3ccccc3c3c4c(c5c6ccccc6n2c5c31)C(=O)NC4 [staurosporine]
effect upon light output [1]: no significant effect | inhibition of JNK2α2 activity (JNK2α2; 5 μM staurosporine, after 30 minutes at 30° C., ATP 12.5 μM, JNK2α2 1.25 μM, ATF-2 2.55 μM): approximately 50% | effect on JNK2α2 activity (JNK2α2; the lower of two staurosporine concentrations, 30° C.): little effect
